# Data reported in patent US12485107B2, “Methods for the prevention or treatment of cytokine storm” (Beth Israel Deaconess Medical Center, Inc., priority 2019, dated 2025).
# Test system: RAW264.7 murine macrophages
# Experiment: Annexin V/PI cell death analysis of RAW264.7 macrophages
# Format: cell-based
# Settings: 5 μM, 24 hours, vs vehicle
# Experimental: Murine (ID8) or human (OVCAR5) ovarian tumor cells were treated with vehicle or a chemotherapeutic agent (e.g., cisplatin, carboplatin, or paclitaxel) as described. B/CMBA.Ov murine ovarian epithelial cells were treated with vehicle or PTUPB (1 or 5 μM) for 24 hours. The floating population (e.g., dead cells or “debris”) was collected, and the remaining adhered cells were trypsinized and combined with the dead cells. RAW264.7 murine macrophages were treated with vehicle or PTUPB (5 μM) for 24 hours. The floating population was collected and the remaining adhered cells were detached using a cell scraper (Corning Inc., Corning, NY) and combined with the dead cells. Cells were counted via hemocytometer, pelleted, and resuspended in PBS at 1×10^6 cells/mL. Next, 2×10^5 cells were stained with annexin V and propidium iodide (PI) according to FITC Annexin V/Dead Cell Apoptosis Kit protocol (Life Technologies, Carlsbad, CA). Staining was assessed using the BD LSR Fortessa (BD Biosciences, San Jose, CA) at the Dana-Farber Cancer Institute Jimmy Fund Flow Cytometry Core, and analyzed using FlowJo software (Tree Star Inc., Ashland, OR). Experiments were performed three times with similar results.
smiles,measurement,value
"NS(=O)(=O)c1ccc(-n2nc(CCCNC(=O)Nc3ccc(C(F)(F)F)cc3)cc2-c2ccccc2)cc1 [PTUPB, 4-(5-phenyl-3-{3-[3-(4-trifluoromethyl-phenyl)-ureido]propyl}-pyrazol-1-yl) benzenesulfonamide]",induction of cell death of RAW264.7 macrophages,did not induce cell death
